IC50 data for 22 compounds are collected here from patent US20220289753A1, “SHP2 INHIBITORS” (IRBM S.P.A., priority 2019, published 2022).

In general, IC50 refers to the concentration that inhibits the measured activity by half.

SMILES strings stand for the structures. Some results are limits rather than exact numbers.

In test [1] the target is T1, SHP-2 enzyme (Met1-Leu525) (Homo sapiens, UniProt Q06124).
T1 construct: synthetized by Origene, Met1-Leu525, cat #TP750155; purchased Origene TP750155
T1 sequence (Q06124 1-525): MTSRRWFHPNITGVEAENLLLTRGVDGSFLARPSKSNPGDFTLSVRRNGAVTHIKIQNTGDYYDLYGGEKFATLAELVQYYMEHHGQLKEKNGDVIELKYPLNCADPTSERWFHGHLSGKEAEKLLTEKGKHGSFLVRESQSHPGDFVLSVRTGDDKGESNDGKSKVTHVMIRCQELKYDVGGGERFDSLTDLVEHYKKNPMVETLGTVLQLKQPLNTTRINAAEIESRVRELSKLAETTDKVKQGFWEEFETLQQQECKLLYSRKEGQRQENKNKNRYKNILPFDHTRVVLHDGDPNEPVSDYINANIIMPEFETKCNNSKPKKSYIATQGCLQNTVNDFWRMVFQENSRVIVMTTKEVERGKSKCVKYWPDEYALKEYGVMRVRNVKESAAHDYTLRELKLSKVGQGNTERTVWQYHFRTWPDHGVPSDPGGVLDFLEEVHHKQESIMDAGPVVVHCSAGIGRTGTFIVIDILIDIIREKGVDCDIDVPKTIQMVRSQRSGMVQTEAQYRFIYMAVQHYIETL
The experiment in a line: SHP2 inhibition enzymatic assay (DiFMUP substrate, IRS1 peptide activation). It is filed as biochemical. Particulars: SHP2 wt; activated by 500 nM IRS1 peptide; 75 μM DiFMUP substrate. In a few lines:
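SHP-2 (Met1-Leu525, 0.5 nM final) preincubated 30 min with compounds and IRS1 activating peptide in HEPES pH 7.2 buffer with NaCl, KCl, EDTA, tween-20, 5 mM DTT. DiFMUP then added for 30 min at room temperature and fluorescence read. IC50 from four-parameter logistic fit of % inhibition.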

In test [2] the test system is ERK phosphorylation in KYSE-520 cells. The experiment in a line: Phospho-ERK cellular assay (Advanced phospho-ERK1/2 (Thr202/Tyr204) TR-FRET kit). The conditions noted are these: Homo sapiens, KYSE-520, 2 h, KYSE-520 cells, 2 h at 37° C., TR-FRET; read-out: pERK IC50. The test is classed as cell-based. In a few lines: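 IC50 values are inflection points of four-parameter logistic fits of percent activity against compound dilution. Compound exposure lasted 2 h at 37° C in KYSE-520 cells. Lysates were probed overnight with Eu-cryptate/d2 antibodies to ERK1/2 phosphorylated at Thr202/Tyr204, so reduced TR-FRET indicates SHP2 inhibition.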
(TR-FRET usually uses a lanthanide donor and a delayed reading to cut background.)

As for `N[C@@H]1c2cccnc2CC12CCN(c1nc3nc(Sc4ccncc4Cl)cnc3[nH]1)CC2` [Example 150, (S)-1′-(5-((3-chloropyridin-4-yl)thio)-1H-imidazo[4,5-b]pyrazin-2-yl)-5,7-dihydrospiro[cyclopenta[b]pyridine-6,4′-piperidin]-5-amine], the half-inhibitory concentration (IC50) in test [1] is under 500 nM; in test [2], 1000 to 5000 nM.

For the compound `N[C@@H]1c2ccccc2CC12CCN(c1nc3nc(Sc4cnc5ccccn5c4=O)cnc3[nH]1)CC2` [Example 221, (S)-3-((2-(1-amino-1,3-dihydrospiro[indene-2,4′-piperidin]-1′-yl)-1H-imidazo[4,5-b]pyrazin-5-yl)thio)-4H-pyrido[1,2-a]pyrimidin-4-one], the IC50 in test [1] was in the range of 500 to 3000 nM; in test [2] it was 1000 to 5000 nM.

Consider `N[C@@H]1c2ccccc2CC12CCN(c1nc3nc(Sc4cccc5c4C(F)(F)C(=O)N5)cnc3[nH]1)CC2` [Example 162, (S)-4-((2-(1-amino-1,3-dihydrospiro[indene-2,4′-piperidin]-1′-yl)-1H-imidazo[4,5-b]pyrazin-5-yl)thio)-3,3-difluoroindolin-2-one], for which the half-inhibitory concentration (IC50) in test [1] was under 500 nM; in test [2], under 1000 nM.

In the case of `N[C@@H]1c2cccnc2CC12CCN(c1nc3ncc(Sc4ccc5c(c4Cl)NC(=O)CO5)nc3[nH]1)CC2` [Example 169, (S)-6-((2-(5-amino-5,7-dihydrospiro[cyclopenta[b]pyridine-6,4′-piperidin]-1′-yl)-1H-imidazo[4,5-b]pyrazin-6-yl)thio)-5-chloro-2H-benzo[b][1,4]oxazin-3(4H)-one], the IC50 in test [1] is under 500 nM; in test [2] it was under 1000 nM.

Consider `N[C@@H]1c2ccccc2CC12CCN(c1nc3ncc(Sc4cccc5c4OCCO5)nc3[nH]1)CC2` [Example 167, (S)-1′-(6-((2,3-dihydrobenzo[b][1,4]dioxin-5-yl)thio)-1H-imidazo[4,5-b]pyrazin-2-yl)-1,3-dihydrospiro[indene-2,4′-piperidin]-1-amine], for which the values for the IC50 in test [1] and in test [2] were under 500 nM and under 1000 nM, respectively.

As to `COC1CN(c2nccc(Sc3cnc4nc(N5CCC6(CC5)Cc5ccccc5[C@H]6N)[nH]c4n3)c2Cl)C1` [Example 181, (S)-1′-(5-((3-chloro-2-(3-methoxyazetidin-1-yl)pyridin-4-yl)thio)-1H-imidazo[4,5-b]pyrazin-2-yl)-1,3-dihydrospiro[indene-2,4′-piperidin]-1-amine], the IC50 was under 500 nM in test [1] and over 5000 nM in test [2].

As for `CC1(N)CCN(c2nc3nc(Sc4ccccc4Br)cnc3[nH]2)CC1` [Example 37, 1-(5-((2-bromophenyl)thio)-1H-imidazo[4,5-b]pyrazin-2-yl)-4-methylpiperidin-4-amine], the IC50 is under 500 nM in test [1] and 1000 to 5000 nM in test [2].

Turning to `N[C@@H]1c2ccccc2CC12CCN(c1nc3nc(Sc4ccnc(NC5CC5)c4Cl)cnc3[nH]1)CC2` [Example 160, (S)-1′-(5-((3-chloro-2-(cyclopropylamino)pyridin-4-yl)thio)-1H-imidazo[4,5-b]pyrazin-2-yl)-1,3-dihydrospiro[indene-2,4′-piperidin]-1-amine], the results for the IC50 in test [1] and in test [2] were under 500 nM and under 1000 nM, respectively.

On to `CNc1nccc(Sc2cnc3[nH]c(N4CCC5(CC4)Cc4ncccc4[C@H]5N)nc3n2)c1C(F)(F)F` [Example 264, (5S)-1′-[5-[2-(methylamino)-3-(trifluoromethyl)pyridin-4-yl]sulfanyl-1H-imidazo[4,5-b]pyrazin-2-yl]spiro[5,7-dihydrocyclopenta[b]pyridine-6,4′-piperidine]-5-amine], for which the half-inhibitory concentration (IC50) in test [1] was under 500 nM; in test [2], under 1000 nM.

`COc1ccncc1Sc1cnc2[nH]c(N3CCC4(CC3)Cc3ccccc3[C@H]4N)nc2n1` [Example 237, (S)-1′-(5-((4-methoxypyridin-3-yl)thio)-1H-imidazo[4,5-b]pyrazin-2-yl)-1,3-dihydrospiro[indene-2,4′-piperidin]-1-amine]: the IC50 in test [1] is under 500 nM; in test [2], over 5000 nM.

As for `N[C@@H]1c2cccnc2CC12CCN(c1nc3ncc(Sc4cc(Cl)c5[nH]c(=O)oc5c4)nc3[nH]1)CC2` [Example 168, (S)-6-((2-(5-amino-5,7-dihydrospiro[cyclopenta[b]pyridine-6,4′-piperidin]-1′-yl)-1H-imidazo[4,5-b]pyrazin-6-yl)thio)-4-chlorobenzo[d]oxazol-2(3H)-one], the results for the IC50 in test [1] and in test [2] were under 500 nM and over 5000 nM, respectively.

Regarding `N#Cc1ccc2c(c1)[C@@H](N)C1(CCN(c3nc4nc(Sc5ccnc(N)c5Cl)cnc4[nH]3)CC1)C2` [Example 256, (S)-1-amino-1′-(5-((2-amino-3-chloropyridin-4-yl)thio)-1H-imidazo[4,5-b]pyrazin-2-yl)-1,3-dihydrospiro[indene-2,4′-piperidine]-6-carbonitrile], the values for the half-inhibitory concentration (IC50) in test [1] and in test [2] were under 500 nM and over 5000 nM, respectively.

In the case of `Nc1nccc(Sc2cnc3nc(N4CCC5(CC4)Cc4cccc(F)c4[C@H]5N)[nH]c3n2)c1Cl` [Example 203, (S)-1′-(6-((2-amino-3-chloropyridin-4-yl)thio)-1H-imidazo[4,5-b]pyrazin-2-yl)-7-fluoro-1,3-dihydrospiro[indene-2,4′-piperidin]-1-amine], the IC50 is under 500 nM in test [1] and under 1000 nM in test [2].

Regarding `COc1nccc(Sc2cnc3[nH]c(N4CCC5(CC4)Cc4ncccc4[C@H]5N)nc3n2)c1Cl` [Example 151, (S)-1′-(5-((3-chloro-2-methoxypyridin-4-yl)thio)-1H-imidazo[4,5-b]pyrazin-2-yl)-5,7-dihydrospiro[cyclopenta[b]pyridine-6,4′-piperidin]-5-amine], the 50% inhibitory concentration (IC50) in test [1] is under 500 nM; in test [2], over 5000 nM.

Turning to `N[C@@H]1c2cccnc2CC12CCN(c1nc3ncc(Sc4cccc5c4CCC(=O)N5)nc3[nH]1)CC2` [Example 170, (S)-5-((2-(5-amino-5,7-dihydrospiro[cyclopenta[b]pyridine-6,4′-piperidin]-1′-yl)-1H-imidazo[4,5-b]pyrazin-5-yl)thio)-3,4-dihydroquinolin-2(1H)-one], the IC50 in test [1] was under 500 nM; in test [2], 1000 to 5000 nM.

Regarding `N[C@@H]1c2ccccc2OC12CCN(c1nc3nc(Sc4ccncc4Cl)cnc3[nH]1)CC2` [Example 155, (R)-1′-(5-((3-chloropyridin-4-yl)thio)-1H-imidazo[4,5-b]pyrazin-2-yl)-3H-spiro[benzofuran-2,4′-piperidin]-3-amine], the IC50 is under 500 nM in test [1] and 1000 to 5000 nM in test [2].

As to `N[C@@H]1c2cccnc2CC12CCN(c1nc3ncc(Sc4ccnc(Cl)c4Cl)nc3[nH]1)CC2` [Example 171, (S)-1′-(5-((2,3-dichloropyridin-4-yl)thio)-1H-imidazo[4,5-b]pyrazin-2-yl)-5,7-dihydrospiro[cyclopenta[b]pyridine-6,4′-piperidin]-5-amine], the half-maximal inhibitory concentration (IC50) is under 500 nM in test [1] and under 1000 nM in test [2].

As for `COc1c(Sc2cnc3nc(N4CCC5(CC4)Cc4ccc(F)cc4[C@H]5N)[nH]c3n2)ccnc1N` [Example 190, (S)-1′-(6-((2-amino-3-methoxypyridin-4-yl)thio)-1H-imidazo[4,5-b]pyrazin-2-yl)-6-fluoro-1,3-dihydrospiro[indene-2,4′-piperidin]-1-amine], the IC50 is under 500 nM in test [1] and under 1000 nM in test [2].

As for `N[C@@H]1c2ccccc2CC12CCN(c1[nH]c3ncc(Sc4cccc(Cl)c4Cl)nc3c1Cl)CC2` [Example 248, (S)-1′-(7-chloro-2-((2,3-dichlorophenyl)thio)-5H-pyrrolo[2,3-b]pyrazin-6-yl)-1,3-dihydrospiro[indene-2,4′-piperidin]-1-amine], the values for the concentration for half-maximal inhibition (IC50) in test [1] and in test [2] were under 500 nM and 1000 to 5000 nM, respectively.

Regarding `COc1ccc2nccc(Sc3cnc4[nH]c(N5CCC6(CC5)Cc5ccccc5[C@H]6N)nc4n3)c2n1` [Example 220, (S)-1′-(5-((6-methoxy-1,5-naphthyridin-4-yl)thio)-1H-imidazo[4,5-b]pyrazin-2-yl)-1,3-dihydrospiro[indene-2,4′-piperidin]-1-amine], the concentration for half-maximal inhibition (IC50) in test [1] was under 500 nM; in test [2] it was 1000 to 5000 nM.

Turning to `COC(=O)c1c(N2CCC3(CC2)Cc2ccccc2[C@H]3N)[nH]c2ncc(Sc3cccc(Cl)c3Cl)nc12` [Example 253, methyl (S)-6-(1-amino-1,3-dihydrospiro[indene-2,4′-piperidin]-1′-yl)-2-((2,3-dichlorophenyl)thio)-5H-pyrrolo[2,3-b]pyrazine-7-carboxylate], the IC50 is under 500 nM in test [1] and under 1000 nM in test [2].

For `Nc1nccc(Sc2cnc3[nH]c(N4CCC5(CC4)Cc4ccc(Br)cc4[C@H]5N)nc3n2)c1Cl` [Example 219, (S)-1′-(5-((2-amino-3-chloropyridin-4-yl)thio)-1H-imidazo[4,5-b]pyrazin-2-yl)-6-bromo-1,3-dihydrospiro[indene-2,4′-piperidin]-1-amine], the IC50 in test [1] was under 500 nM; in test [2], under 1000 nM.
